Two molecules from BindingDB's records for doi:10.1021/jm070014g (2007) can be followed below.

In this test the target is T1, Protein Tat (Human immunodeficiency virus type 1 group M subtype B (isolate HXB2), UniProt P04608).
T1 sequence (P04608 whole entry): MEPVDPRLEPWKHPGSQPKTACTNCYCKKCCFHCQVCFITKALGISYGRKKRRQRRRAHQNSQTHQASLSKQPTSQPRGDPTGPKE
Briefly: Inhibition of Tat-mediated transcription of viral promoter in 293 T cells transfected with HIV1 tat by luciferase reporter gene assay. (Reporter assays use an easily measured gene product as a stand-in for the process of interest.)

The EC50 is the concentration giving half of the maximal effect. Low readings indicate an effect from little substance, high ones a need for much substance. `Cc1ccc(NCCCN)c([N+](=O)[O-])c1` displayed an EC50 of 10 µM.

The molecule `CC(Cl)c1ccc(NCCCN)c([N+](=O)[O-])c1` (configuration not stated) showed an EC50 of 1 µM.
